One test has as its system rat aorta rings. Put plainly: Measurement of tension in rat aorta rings (myorelaxant activity). It is filed as cell-based. Conditions: KCl-contracted rat aorta rings; concentration evoking 50% inhibition of plateau phase; mean ± s.e.m. (n); read-out: Myorelaxant activity ED50. Here is the method: Measurement of tension in rat aorta rings was performed according to the following procedure.
Experiments were performed with aorta removed from adult fed Wistar rats (Charles River Laboratories, Belgium).
A section of the thoracic aorta was cleared of adhering fat and connective tissue and was cut into transverse rings (3-4 mm long). The endothelium was removed and the segments suspended under 1.5 g tension in an organ bath containing 20 mL of a physiological solution (in mM: NaCl 118, KCl 4.7, CaCl2 2.5, NaHCO3 25, KH2PO4 1.2, MgSO4 1.2, glucose 5). The physiological solution was maintained at 37° C. and continuously bubbled with a mixture of O2 (95%) and CO2 (5%). Isometric contractions were measured with a force-displacement transducer. After 60 minutes of equilibration, the rings were exposed to KCl (30 or 80 mM). When the tension had stabilized, the chroman derivative was added to the bath at increasing concentrations until maximal relaxation (or until 300 µM). Some experiments were repeated in the continuous presence of 1 or 10 µM glibenclamide in the bathing medium.
The relaxation response was expressed as the percentage of the contractile response to KCl. The ED50 values (concentration evoking 50% inhibition of the plateau phase induced by KCl) were assessed from dose-response curves using Datanalyst software (EMKA Technologies, France).

The subject of test [1] is rat pancreatic islets. Description: Insulin release from incubated rat pancreatic islets. It is filed as cell-based. Conditions: 10 μM compound, 16.7 mM glucose, % of control without drug; mean ± s.e.m. (n). Here is the method:
Measurement of insulin release from incubated rat pancreatic islets was performed according to the following procedure.
Experiments were performed with pancreatic islets isolated from adult fed Wistar rats (Charles River Laboratories, Belgium).
Groups of 10 islets, each derived from the same batch of islets, were preincubated for 30 minutes at 37° C. in 1 mL of a physiological salt medium (in mM: NaCl 115, KCl 5, CaCl2 2.56, MgCl2 1, NaHCO3 24) supplemented with 2.8 mM glucose, 0.5% (w:v) dialyzed albumin (Sigma) and equilibrated against a mixture of O2 (95%) and CO2 (5%). The islets were then incubated at 37° C. for 90 minutes in 1 mL of the same medium containing 16.7 mM glucose and, in addition, the required benzopyran derivative.
The release of insulin was measured radioimmunologically according to Leclercq-Meyer et al., Endocrinology, 1985, 116, 1168-1174 using rat insulin as a standard.
Residual insulin secretion was expressed as a percentage of the value recorded in control experiments (100%); i.e. in the absence of drug and presence of 16.7 mM glucose. Measurement of 86Rb outflow from perifused rat pancreatic islets was performed according to the following procedure. Groups of 100 islets were incubated for 60 min in a medium containing 16.7 mM glucose and 86Rb (0.15-0.25 mM; 50 μCi/ml). After incubation, the islets were washed three times and then placed in a perifusion chamber. The perifusate was delivered at a constant rate (1.0 ml/min). From the 31st to the 90th min, the effluent was continuously collected over successive periods of 1 min each. An aliquot of the effluent (0.6 ml) was used for scintillation counting. At the end of the perifusion, the radioactive content of the islets was determined. The outflow of 86Rb (cpm/min) was expressed as a fractional outflow rate (% of instantaneous islet content/min; FOR).

Test [2] deals with rat pancreatic islets. The following applies: cited from earlier work; for Residual insulin secretion (%) [10 μM]: 10 μM compound, published results (footnotes b, c).

Read-outs that look alike come from different tables or passages of the source.

As to `CC1(C)Oc2ccc(C#N)cc2C(N2CCCC2=O)C1O` (stereo not drawn) [Cromakalim, cromakalim], in the test with rat aorta rings, the EC50 amounted to 130 ± 10 nM. Also, in the test with rat pancreatic islets [1], the “Residual insulin secretion (%) [10 μM]” value is listed as 94.7 ± 4.3 (24) %. For the same compound, in the test on rat pancreatic islets [2] (background statement, reflects poor activity as PCO on pancreatic KATP channels), the “Activity as an inhibitor of insulin secretion (in words)” value was “poorly active”.

With `CC1=NS(=O)(=O)c2cc(Cl)ccc2N1` [Diazoxide, diazoxide], the “Residual insulin secretion (%) [10 μM]” value in the test with rat pancreatic islets [2] is on record as 71.7 ± 2.8 (38)^b %.

Take `Cc1cccc(NC(=S)NC2CC(C)(C)Oc3ccc(F)cc32)c1` (stereo not drawn) [Example 4, R/S-3,4-Dihydro-2,2-dimethyl-6-fluoro-4-(3-methylphenylaminothiocarbonylamino)-2H-1-benzopyran]: the “Residual insulin secretion (%) [10 μM]” value with rat pancreatic islets [1] turned out to be 53.1 ± 3.6%.

`Cc1ccc(NC(=S)NC2CC(C)(C)Oc3ccc(Cl)cc32)cc1` (stereo not drawn) [Example 8, R/S-6-Chloro-3,4-dihydro-2,2-dimethyl-4-(4-methylphenylaminothiocarbonylamino)-2H-1-benzopyran]: the “Residual insulin secretion (%) [10 μM]” value in the test on rat pancreatic islets [1] came to 32.8 ± 1.9%.

Take `COc1cccc(NC(=S)NC2CC(C)(C)Oc3ccc(F)cc32)c1` (stereo not drawn) [Example 22, R/S-3,4-Dihydro-2,2-dimethyl-6-fluoro-4-(3-methoxyphenylaminothiocarbonylamino)-2H-1-benzopyran]: in the test with rat pancreatic islets [1], the “Residual insulin secretion (%) [10 μM]” value stood at 52.0 ± 2.3%.

Turning to `CC1(C)CC(NC(=S)Nc2cccnc2)c2cc(Br)ccc2O1` (stereo not drawn) [Example 42, R/S-6-Bromo-3,4-dihydro-2,2-dimethyl-4-(3-pyridylaminothiocarbonylamino)-2H-1-benzopyran], in the test with rat pancreatic islets [1], the “Residual insulin secretion (%) [10 μM]” value stood at 44.3 ± 2.8%.

On to `CC1(C)CC(NC(=O)Nc2cccc(Cl)c2)c2cc(F)ccc2O1` (stereo not drawn) [Example 77, R/S-4-(3-Chlorophenylaminocarbonylamino)-3,4-dihydro-2,2-dimethyl-6-fluoro-2H-1-benzopyran], for which the “Residual insulin secretion (%) [10 μM]” value in the test on rat pancreatic islets [1] came to 28.0 ± 1.5%.

`CC1(C)CC(NC(=O)Nc2ccc(Cl)cc2)c2cc(Br)ccc2O1` (stereo not drawn) [Example 82, R/S-6-Bromo-4-(4-chlorophenylaminocarbonylamino)-3,4-dihydro-2,2-dimethyl-2H-1-benzopyran]: in the test on rat pancreatic islets [1], the “Residual insulin secretion (%) [10 μM]” value was 25.7 ± 1.5%.

Take `CC(N/C(=N\C#N)Nc1ccncc1)C(C)(C)C` (stereo not drawn) [Pinacidil, pinacidil]: the EC50 in the test with rat aorta rings was 350 ± 20 nM. The “Residual insulin secretion (%) [10 μM]” value in the test on rat pancreatic islets [2] is 96.0 ± 4.2 (20)^c %.

These data come from patent publication US7507761B2, “Benzopyran derivatives, method of production and use thereof” (Universite de Liege, priority 2004, dated 2009).
